Test results reported in patent US12012394B2, “Alpha-synuclein ligands” (Washington University, priority 2018, dated 2024).

Assays:
[1] = target: Banner PD-seeded α-synuclein fibrils (Homo sapiens (Human), UniProt P37840); assay: Homologous competition radioligand binding assay, PD-seeded fibrils; details: 150 nM Banner PD seeded fibrils
Experimental: The equilibrium dissociation constant (Kd) for a series of compounds was determined using direct radioactive competitive binding assays (homologous or heterologous) with either recombinant α-synuclein fibrils or brain tissue homogenates from AD cases.
Recombinant protein was produced in E. coli using protocols based on previously described methods for α-synuclein [Giasson, B. I., et al., “Mutant and wild type human alpha-synucleins assemble into elongated filaments with distinct morphologies in vitro,” 1999, J Biol. Chem., 274:7619-7622; Huang, C., et al., “A new method for purification of recombinant human alpha-synuclein in Escherichia coli,” 2005, Protein Expr Purif, 42:173-177; Yu, L., et al, “Synthesis and in vitro evaluation of á-synuclein ligands,” 2012, Bioorg. Med. Chem., 20:4625-4634] and tau [Li, W., et al., “Characterization of two VQIXXK motifs for tau fibrillization in vitro,” 2006, Biochemistry, 45:15692-15701]. BL21(DE3)RIL E. coli were transformed with a pRK172 bacterial expression plasmid containing the human α-synuclein coding sequence. […]. Overnight cultures were centrifuged at 3,900×g for 10 min at 25° C. and the bacterial pellets were resuspended by gentle vortexing in 20 ml osmotic shock buffer (30 mM Tris-HCl, 2 mM EDTA, 40% Sucrose, pH 7.2) and then incubated at room temperature for 10 min. The cell suspension was then centrifuged at 8,000×g for 10 min at 25° C. and the pellet was resuspended in 22.5 ml cold H2O before adding 9.4 μl 2 M MgCl2 to each tube. The suspension was incubated on ice for 3 min prior to centrifugation at 20,000×g for 15 min at 4° C. After the supernatant was transferred to a fresh tube, streptomycin was added to a final concentration of 10 mg/ml and centrifuged at 20,000×g for 15 min at 4° C. The supernatant from this step was collected and dithiothreitol (DTT) and Tris-HCl pH 8.0 were added to final concentrations of 1 mM and 20 mM respectively, before boiling for 10 min to precipitate heat-sensitive proteins, which were pelleted at 20,000×g for 15 min at 4° C. The supernatant was collected and filtered through a 0.45 μm surfactant-free cellulose acetate filter (Corning) before loading onto a 1 ml DEAE Sepharose column equilibrated in 20 mM Tris-HCl pH 8.0, 1 mM EDTA, and 1 mM DTT. The DEAE column was washed with 20 mM Tris-HCl pH 8.0, 1 mM EDTA, 1 mM DTT before eluting α-synuclein protein in 20 mM Tris-HCl pH 8.0 buffer with 1 mM EDTA, 1 mM DTT and 0.3 M NaCl. Purified α-synuclein protein was dialyzed overnight in 10 mM Tris-HCl pH 7.6, 50 mM NaCl, 1 mM DTT.
Purified recombinant α-synuclein monomer (2 mg/ml) was incubated in 20 mM Tris-HCl, pH 8.0, 100 mM NaCl for 72 h at 37 C with shaking at 1000 rpm in an Eppendorf Thermomixer. […] The concentration of α-synuclein monomer in the supernatant was determined in a BCA protein assay according to the manufacturer's instructions, using a bovine serum albumin (BSA) standard curve. The measured decrease in α-synuclein monomer concentration was used to determine the concentration of fibrils in the 72 h fibril reaction mixture. […]
These direct binding assays used a fixed concentration of either fibrils or PD/AD tissue and the radioligand (e.g., [^18F]28) and varying concentration ranges of corresponding homologous non-radiolabeled standard reference compound. […] Reactions were incubated at 37° C. for 1 h before quantifying bound radioligand. […]

[2] = target: PD-seeded fibrils (Homo sapiens (Human), UniProt P37840); assay: Heterologous competition binding assay with [18F]TZ61-44 as radioligand; details: radioligand [18F]TZ61-44, 25 nM PD-seeded fibrils
Experimental: The equilibrium inhibitor constant (Ki) of a series of compounds was measured using heterologous radioactive binding assays with [^18F]TZ61-44, […], or [^125I]TZ61-84 as the screening radioligands. EC50 values for each compound were determined by fitting the data to the equation Y=Bottom+(Top−Bottom)/(1+(X−Log EC50)^−Hillcoefficient) using nonlinear regression by Kaleidagraph software, where Top and Bottom are the Y values for the top and bottom plateaus of the binding curve. The Ki values were derived from the EC50 values using the Cheng-Prusoff equation: Ki=EC50/(1+[radioligand]/Kd). FIGS. 5A-5E show the inhibition curves for TG-1-90B, TZ55-101, TZ61-84, TZ55-107, and TZ55-81 using [^18F]TZ61-44 as the radioligand. FIG. 11B-C show the inhibition curves for two separate experiments on PD fibrils for TZ55-101 using […] as the radioligand. FIGS. 12A-12F show the inhibition curves for TZ66-3, TZ64-015, TZ64-016, TZ64-018, TZ64-019, and TZ64-020 using [^18F]TZ61-44 as the radioligand. FIGS. 13A-13D show the inhibition curves for TZ66-9, TZ66-8, and TZ55-107 using [^18F]TZ61-44 as the radioligand.

- Kd [1]: 29 nM
- EC50 [2]: 46 nM
- Ki ([2]; Cheng-Prusoff from EC50): 43 nM
Compound: COc1ccc2nc(-c3csc(C=O)c3)ccc2c1 [TZ55-81]
